Data published in ChEMBL document CHEMBL3425496, “Exploring experimental and computational markers of cyclic peptides: Charting islands of permeability” (Eur J Med Chem, 2015).
Square brackets hold non-standard residues; d marks the D form. Peptide text beside a SMILES is read from it. NMeW = CN[C@@H](Cc1c[nH]c2ccccc12)C(=O)O; NMeL = CN[C@@H](CC(C)C)C(=O)O; dNMeL = CN[C@H](CC(C)C)C(=O)O

Legend:
[1] = Apparent permeability of the compound at 50 uM after 5 hrs by PAMPA method; format: physicochemical
[2] = Apparent permeability from apical to basolateral side in human Caco2 cells by LC-MS analysis; format: ADME, cell-based; details: Caco-2

**Q.** Which Papp at 5 h, 50 µM [1] does the source give for `CC(C)C[C@@H]1NC(=O)[C@H](Cc2ccccc2)N(C)C(=O)CN(C)C(=O)[C@H](C)NC(=O)[C@H](Cc2ccc(O)cc2)N(C)C(=O)[C@H]2CCCN2C1=O` here?
**A.** 0.35 ×10⁻⁶ cm/s

**Q.** What about the Papp A→B [2] of the same molecule?
**A.** 1.08 ×10⁻⁶ cm/s

**Q.** With `CC(C)C[C@@H]1NC(=O)[C@H](Cc2ccc(O)cc2)NC(=O)[C@H]2CCCN2C(=O)[C@H](CC(C)C)NC(=O)[C@H](CC(C)C)N(C)C(=O)[C@@H](CC(C)C)N(C)C1=O` as the molecule, how does the Papp at 5 h, 50 µM [1] read?
**A.** 0.96 ×10⁻⁶ cm/s

**Q.** And the Papp A→B [2]?
**A.** 10.8 ×10⁻⁶ cm/s

**Q.** What does the source list for `CC(C)C[C@@H]1C(=O)N(C)[C@@H](CC(C)C)C(=O)N(C)[C@@H](CC(C)C)C(=O)N2CCC[C@@H]2C(=O)N[C@@H](Cc2ccc(O)cc2)C(=O)N(C)[C@@H](CC(C)C)C(=O)N1C`?
**A.** Papp at 5 h, 50 µM [1]: 1.52 ×10⁻⁶ cm/s; Papp A→B [2]: 15.8 ×10⁻⁶ cm/s

**Q.** Which Papp at 5 h, 50 µM [1] does the source give for `C=C[C@H]1C[N@@]2CC[C@H]1C[C@@H]2[C@@H](O)c1ccnc2ccc(OC)cc12` [QUINIDINE] here?
**A.** 3.28 ×10⁻⁶ cm/s

**Q.** Which results are given for `C[C@@H](O)[C@@H]1NC(=O)[C@@H](CCCCN)NC(=O)[C@@H](Cc2c[nH]c3ccccc23)NC(=O)[C@H](Cc2ccccc2)NC(=O)[C@@H]2CCCN2C(=O)[C@@H](Cc2ccccc2)NC1=O`?
**A.** Papp at 5 h, 50 µM [1]: 0.09 ×10⁻⁶ cm/s; Papp A→B [2]: 0.2 ×10⁻⁶ cm/s

**Q.** With `CC(C)C[C@H]1C(=O)N2CCC[C@H]2C(=O)N[C@@H](Cc2ccc(O)cc2)C(=O)N(C)[C@H](C)C(=O)N(C)CC(=O)N[C@@H](Cc2ccccc2)C(=O)N1C` as the molecule, how does the Papp A→B [2] read?
**A.** < 0.14 ×10⁻⁶ cm/s

**Q.** For `CC(C)C[C@@H]1NC(=O)[C@H](CC(C)C)N(C)C(=O)[C@@H](CC(C)C)N(C)C(=O)[C@H](Cc2ccc(O)cc2)NC(=O)[C@@H]2CCCN2C(=O)[C@H](CC(C)C)N(C)C1=O`, which Papp at 5 h, 50 µM [1] is on record?
**A.** 2.3 ×10⁻⁶ cm/s

**Q.** What about the Papp A→B [2] of the same molecule?
**A.** 13.9 ×10⁻⁶ cm/s

**Q.** Which Papp at 5 h, 50 µM [1] does the source give for `CC(C)C[C@@H]1C(=O)N(C)[C@H](CC(C)C)C(=O)N[C@H](CC(C)C)C(=O)N(C)[C@@H](CC(C)C)C(=O)N2CCC[C@H]2C(=O)N[C@@H](Cc2ccc(O)cc2)C(=O)N1C` here?
**A.** 1.88 ×10⁻⁶ cm/s

**Q.** And the Papp A→B [2]?
**A.** 16.4 ×10⁻⁶ cm/s

**Q.** For `CC(C)C[C@@H]1NC(=O)[C@H](C(C)C)NC(=O)[C@H](Cc2c[nH]c3ccccc23)NC(=O)[C@H](Cc2ccccc2)NC(=O)[C@H](Cc2ccccc2)NC(=O)[C@@H]2CCCN2C1=O` (cyclo(FFWVLP)), which Papp at 5 h, 50 µM [1] is on record?
**A.** 0.37 ×10⁻⁶ cm/s

**Q.** And the Papp A→B [2]?
**A.** 0.24 ×10⁻⁶ cm/s

**Q.** Which Papp A→B [2] does the source give for `CC[C@H](C)[C@@H]1NC(=O)[C@H](C(C)C)NC(=O)[C@H](CC(C)C)NC(=O)CNC(=O)[C@@H]2CCCN2C(=O)[C@H](Cc2ccc(O)cc2)NC1=O` (cyclo(GLVIYP)) here?
**A.** 0.11 ×10⁻⁶ cm/s

**Q.** Which results are given for `CC(C)C[C@@H]1NC(=O)[C@H](Cc2ccccc2)NC(=O)CNC(=O)[C@H](C)NC(=O)[C@H](Cc2ccc(O)cc2)NC(=O)[C@H]2CCCN2C1=O`?
**A.** Papp at 5 h, 50 µM [1]: 0.01 ×10⁻⁶ cm/s; Papp A→B [2]: 0.27 ×10⁻⁶ cm/s

**Q.** With `CC(C)C[C@@H]1NC(=O)CNC(=O)[C@@H]2CCCN2C(=O)[C@H](Cc2ccc(O)cc2)NC(=O)[C@H](Cc2ccccc2)NC(=O)[C@@H]2CCCN2C1=O` (cyclo(FYPGLP)) as the molecule, how does the Papp at 5 h, 50 µM [1] read?
**A.** 0.01 ×10⁻⁶ cm/s

**Q.** What about the Papp A→B [2] of the same molecule?
**A.** 0.11 ×10⁻⁶ cm/s

**Q.** With `C[C@@H]1NC(=O)[C@H](C)N(C)C(=O)[C@H](C)NC(=O)[C@H](C)N(C)C(=O)[C@H](C)NC(=O)[C@@H](C)NC1=O` as the molecule, how does the Papp at 5 h, 50 µM [1] read?
**A.** < 0.01 ×10⁻⁶ cm/s

**Q.** What about the Papp A→B [2] of the same molecule?
**A.** < 0.14 ×10⁻⁶ cm/s

**Q.** Which Papp A→B [2] does the source give for `CC(C)C[C@H]1C(=O)N2CCC[C@H]2C(=O)N[C@@H](Cc2ccccc2)C(=O)N[C@@H](Cc2ccccc2)C(=O)N[C@@H](Cc2c[nH]c3ccccc23)C(=O)N[C@@H](C(C)C)C(=O)N1C` (cyclo(FFWV[NMeL]P)) here?
**A.** 6.82 ×10⁻⁶ cm/s

**Q.** Which Papp at 5 h, 50 µM [1] does the source give for `CC(C)C[C@@H]1NC(=O)[C@@H](CC(C)C)N(C)C(=O)[C@H](CC(C)C)NC(=O)[C@H](Cc2ccc(O)cc2)NC(=O)[C@H]2CCCN2C(=O)[C@H](CC(C)C)NC1=O` (cyclo(LL[dP]YL[dNMeL])) here?
**A.** 0.77 ×10⁻⁶ cm/s

**Q.** For `CC(C)C[C@@H]1NC(=O)[C@H](C(C)C)NC(=O)[C@H](Cc2c[nH]c3ccccc23)N(C)C(=O)[C@H](Cc2ccccc2)NC(=O)[C@H](Cc2ccccc2)NC(=O)[C@@H]2CCCN2C1=O` (cyclo(FF[NMeW]VLP)), which Papp A→B [2] is on record?
**A.** 1.7 ×10⁻⁶ cm/s

**Q.** For `CN1C(=O)[C@H]2CCCN2C(=O)[C@H](CCCCN)NC(=O)[C@H](CCCNC(=N)N)NC(=O)[C@@H](CCCNC(=N)N)NC(=O)[C@H](CCCNC(=N)N)NC(=O)[C@@H]1Cc1c[nH]c2ccccc12`, which Papp A→B [2] is on record?
**A.** < 0.14 ×10⁻⁶ cm/s
